From patent publication US5726325A, “Tricyclic compounds” (Kyowa Hakko Kogyo Co., Ltd., priority 1995, dated 1998)

Legend:
[1] = test system: detrusor muscle; assay: Test Example 2: relaxation of guinea pig bladder strips, rhythmical contraction induced by 15 mM KCl; type: cell-based, guinea pig (male albino Hartley); conditions: Cavia porcellus, concentration decreasing detrusor contraction by 50%
From the text: (§1) The activity of Compound (I) as a smooth muscle relaxant which is useful as a therapeutic agent for urinary incontinence can be observed, for example, using the following tests. In the following Test Examples 1 and 2, "IC50 " means the concentration of a test compound which induces the decrease in the contraction of detrusor muscle by 50%.
(§2) Male albino Hartley guinea pigs (350-550 g) were used as test animals. Each animal was exsanguinated to death under pentobarbital sodium anesthesia. The lower abdominal cavity was opened and its bladder was positioned. The connective tissue and the fat tissue around the bladder were removed, and the bladder was cleaned. After two pelvic nerves on the surface of the abdominal side of the bladder were dissected, the bladder was taken out on the entrance of ureter. The bladder was washed with a Krebs-Henseleit buffer [composition (mM): NaCl 118, KCl 4.7, MgSO4 1.2, KH2 PO4 1.2, CaCl2 2.5, NaHCO3 25, and D-glucose 11.1], and then put on a gauze patch soaked in the buffer in a Petri dish. The dome and the trigone of the bladder were dissected and discarded. The back of the bladder was cut vertically in the middle with scissors, and the bladder was put flat on the gauze patch. The dome tip and the side of the trigone of the bladder were dissected and discarded, and the mucosa of the bladder was removed. The back of the bladder was cut vertically to get 6 strips which are ca. 2.0 mm wide and ca. 10 mm long.
(§3) One end of each strip was fixed on a plastic supporter rod, and the other end was fixed on a clip connected to a suture thread. The supporter was fixed in 20 ml of an organ bath and the suture thread connected to the clip was fixed on a force-displacement transducer (NIHON KODEN TB-611T). The tissue was suspended in a Krebs-Henseleit buffer, and the bath solution was warmed to 37° C. and bubbled with a gas mixture of 5% CO2 and 95% O2. The pH of the solution was adjusted to about 7.4. The transducer was connected to a polygraph (NIHON KODEN AP-621G), and the change of tension was recorded on a recorder (YOKOGAWA type 3066). The polygraph was graduated by 0.5 g/cm.
The effect of a smooth muscle relaxant varies with the concentration of KCl based on the difference of an action mechanism. In the following Test Example, KCl was used at a concentration different from that in Test Example 1.
A sample of the excised bladder was prepared in the same manner as in Test Example 1, and the tension of the preparation was measured. After the tension of the tissue was adjusted to be a steady state at 1 g, 15 mM KCl was applied. After the rhythmical contraction was confirmed to appear by KCl, the tissue was washed. Then, 15 mM KCl was applied again. After the rhythmical contraction took place constantly and the tissue reached the steady state, a test compound was applied by the cumulative method (half-logarithmic incremence). The contact time at each concentration was 30 minutes. The activity of the compound was expressed as the maximum relaxation rate (%) of the tension induced by the agonist.

[2] = test system: detrusor muscle; assay: Test Example 1: relaxation of guinea pig bladder strips contracted with 50 mM KCl; type: cell-based, guinea pig (male albino Hartley); conditions: Cavia porcellus; contraction induced by 50 mM KCl; concentration decreasing detrusor contraction by 50%
From the text: as §1, §2, §3
After the tissue was incubated in the buffer for 15 minutes without preloading, tension was added thereto for about one hour. The preloading tension added was 1.5 g and it was relaxed to about 1 g. The tissue was washed at intervals of 15 minutes and the tension was adjusted to 1.5 g just before washing. The tension of the tissue was adjusted to be a steady state at 1 g. After this equilibrium time, 50 mM KCl (the whole content in the bath) was added, and the tissue was washed 10 minutes later. KCl was added to the tissue at intervals of 30 minutes, followed by washing 10 minutes later, and KCl was applied repeatedly until the developed tension induced by KCl becomes constant. When the tissue was confirmed to contract constantly by the application of KCl and relax to the steady state after washing, 50 mM KCl was applied again. After the tissue reached the steady state and the base line was obtained, a test compound was applied by the cumulative method (half-logarithmic incremence). The contact time at each concentration was 30 minutes. The activity of the compound was expressed as the maximum relaxation rate (%) of the tension induced by the agonist.

[3] = test system: bladder; assay: Test Example 4: micturition contraction interval in rats under partial restraint, oral; type: in vivo, rat (male SD strain); conditions: Rattus norvegicus, pre-administration = 100; for response vs control in vivo at 1 mg/kg: 1.0 mg/kg oral, second part of Table 4; for response vs control in vivo at 0.1 mg/kg: 0.1 mg/kg oral
From the text: As a control compound, cromakalim was used.

Structure (SMILES)	IC50 [1] [µM]	IC50 [2] [µM]	also measured
CC(O)(C(=O)Nc1ccc2c(c1)C(=O)c1ccccc1CC2)C(F)(F)F (centres unmarked) [Compound 53, 3-(3,3,3-Trifluoro-2-hydroxy-2-methylpropanoylamino)-10,11-dihydro-5H-dibenzo[a,d]cyclohepten-5-one]	2.9	> 10	response vs control in vivo at 1 mg/kg ([3]; 1 hr after administration): 108 ± 9.7%; response vs control in vivo at 1 mg/kg ([3]; 2 hr after administration): 134 ± 12%; response vs control in vivo at 1 mg/kg ([3]; 3 hr after administration): 148 ± 14%; response vs control in vivo at 1 mg/kg ([3]; 4 hr after administration): 155 ± 11.9%; response vs control in vivo at 1 mg/kg ([3]; 5 hr after administration): 168 ± 11.8%
CC(O)(C(=O)Nc1ccc2c(c1)OCc1ccccc1C2=O)C(F)(F)F (centres unmarked) [Compound 2, 3-(3,3,3-Trifluoro-2-hydroxy-2-methylpropanoylamino)-6,11-dihydrodibenz[b,e]oxepin-11-one]	3.4	3.6	response vs control in vivo at 1 mg/kg ([3]; 1 hr after administration): 121 ± 6.2%; response vs control in vivo at 1 mg/kg ([3]; 2 hr after administration): 135 ± 12.3%; response vs control in vivo at 1 mg/kg ([3]; 3 hr after administration): 144 ± 16.3%; response vs control in vivo at 1 mg/kg ([3]; 4 hr after administration): 141 ± 15.6%; response vs control in vivo at 1 mg/kg ([3]; 5 hr after administration): 145 ± 16%
CC(O)(C(=O)Nc1cccc2c1C(=O)c1cccc(F)c1CO2)C(F)(F)F (centres unmarked) [Compound 20, 7-Fluoro-1-(3,3,3-trifluoro-2-hydroxy-2-methylpropanoylamino)-6,11-dihydrodibenz[b,e]oxepin-11-one]	6	2.3	response vs control in vivo at 1 mg/kg ([3]; 1 hr after administration): 121 ± 3.9%; response vs control in vivo at 1 mg/kg ([3]; 2 hr after administration): 147 ± 9.9%; response vs control in vivo at 1 mg/kg ([3]; 3 hr after administration): 148 ± 20%; response vs control in vivo at 1 mg/kg ([3]; 4 hr after administration): 156 ± 19.6%; response vs control in vivo at 1 mg/kg ([3]; 5 hr after administration): 142 ± 15.8%
CC(O)(C(=O)Nc1ccc2c(c1)C(=O)c1sccc1CO2)C(F)(F)F (centres unmarked) [Compound 16, 8-(3,3,3-Trifluoro-2-hydroxy-2-methylpropanoylamino)-4,10-dihydrothieno[3,2-c][1]benzoxepin-10-one]	1.4	> 10	response vs control in vivo at 1 mg/kg ([3]; 1 hr after administration): 118 ± 7.9%; response vs control in vivo at 1 mg/kg ([3]; 2 hr after administration): 132 ± 14.2%; response vs control in vivo at 1 mg/kg ([3]; 3 hr after administration): 119 ± 9.8%; response vs control in vivo at 1 mg/kg ([3]; 4 hr after administration): 127 ± 7.1%; response vs control in vivo at 1 mg/kg ([3]; 5 hr after administration): 137 ± 12.6%
C[C@](O)(C(=O)Nc1cccc2c1C(=O)c1sccc1CO2)C(F)(F)F [Compound 33, (S)-9-(3,3,3-trifluoro-2-hydroxy-2-methylpropanoylamino)-4,10-dihydrothieno[3,2-c][1]benzoxepin-10-one]	2.7	1.1	response vs control in vivo at 0.1 mg/kg ([3]; 1 hr after administration): 135 ± 21.7%; response vs control in vivo at 0.1 mg/kg ([3]; 2 hr after administration): 146 ± 25.5%; response vs control in vivo at 0.1 mg/kg ([3]; 3 hr after administration): 143 ± 24.4%; response vs control in vivo at 0.1 mg/kg ([3]; 4 hr after administration): 156 ± 30.6%; response vs control in vivo at 0.1 mg/kg ([3]; 5 hr after administration): 161 ± 37.4%
CC(O)(C(=O)Nc1ccc2c(c1)C(=O)c1ccccc1-2)C(F)(F)F (centres unmarked) [Compound 5, 2-(3,3,3-Trifluoro-2-hydroxy-2-methylpropanoylamino)fluoren-9-one]	2.1	8	response vs control in vivo at 1 mg/kg ([3]; 1 hr after administration): 112 ± 7%; response vs control in vivo at 1 mg/kg ([3]; 2 hr after administration): 136 ± 16.5%; response vs control in vivo at 1 mg/kg ([3]; 3 hr after administration): 137 ± 14.5%; response vs control in vivo at 1 mg/kg ([3]; 4 hr after administration): 132 ± 9.5%; response vs control in vivo at 1 mg/kg ([3]; 5 hr after administration): 131 ± 17.7%
CC(O)(C(=O)Nc1ccc2c(c1)OCc1c(F)cccc1C2=O)C(F)(F)F (centres unmarked) [Compound 21, 7-Fluoro-3-(3,3,3-trifluoro-2-hydroxy-2-methylpropanoylamino)-6,11-dihydrodibenz[b,e]oxepin-11-one]	> 10	4.3	
CC(O)(C(=O)Nc1cc2c(cc1Br)-c1ccccc1C2=O)C(F)(F)F (centres unmarked) [Compound 12, 3-Bromo-2-(3,3,3-trifluoro-2-hydroxy-2-methylpropanoylamino)fluoren-9-one]	3.2	3.8	
Cc1ccc(NC(=O)C(C)(O)C(F)(F)F)c2c1OCc1ccccc1C2=O (centres unmarked) [Compound 22]	> 10	4.2	
CC(O)(C(=O)Nc1cccc2c1C(=O)c1ccccc1-2)C(F)(F)F (centres unmarked) [Compound 4, 1-(3,3,3-Trifluoro-2-hydroxy-2-methylpropanoylamino)fluoren-9-one]	8.4	2.6	
CC(O)(C(=O)Nc1ccc2c(c1)C(=O)c1cc(Br)ccc1-2)C(F)(F)F (centres unmarked) [Compound 13, 7-Bromo-2-(3,3,3-trifluoro-2-hydroxy-2-methylpropanoylamino)fluoren-9-one]	48	3.5	
CC(O)(C(=O)Nc1ccc2c(c1)-c1ccccc1C2=O)C(F)(F)F (centres unmarked) [Compound 6, 3-(3,3,3-Trifluoro-2-hydroxy-2-methylpropanoylamino)fluoren-9-one]	11.2	6.1	
CC(O)(C(=O)Nc1ccc2c(c1)[S+]([O-])Cc1ccccc1C2=O)C(F)(F)F (centres unmarked) [Compound 49, 5-Oxo-3-(3,3,3-trifluoro-2-hydroxy-2-methylpropanoylamino)-6,11-dihydrodibenzo[b,e]thiepin-11-one]	4.1	7.8	
CC(O)(C(=O)Nc1ccc2c(c1)CCc1ccccc1C2=O)C(F)(F)F (centres unmarked) [Compound 54, 2-(3,3,3-Trifluoro-2-hydroxy-2-methylpropanoylamino)-10,11-dihydro-5H-dibenzo[a,d]cyclohepten-5-one]	> 10	3.8	
CC(O)(C(=O)Nc1ccc2c(c1)SCc1ccccc1C2=O)C(F)(F)F (centres unmarked) [Compound 41, 3-(3,3,3-Trifluoro-2-hydroxy-2-methylpropanoylamino)-6,11-dihydrodibenzo[b,e]thiepin-11-one]	1.6	2.1	
COc1ccc(NC(=O)C(C)(O)C(F)(F)F)c2c1OCc1ccsc1C2=O (centres unmarked) [Compound 27, 6-Methoxy-9-(3,3,3-trifluoro-2-hydroxy-2-methylpropanoylamino)-4,10-dihydrothieno[3,2-c][1]-benzoxepin-10-one]	> 10	4.8	
CC(O)(C(=O)Nc1ccc2c(c1)OCc1sccc1C2=O)C(F)(F)F (centres unmarked) [Compound 18, 7-(3,3,3-Trifluoro-2-hydroxy-2-methylpropanoylamino)-4,10-dihydrothieno[2,3-c][1]benzoxepin-4-one]	2.1	> 10	
CC(O)(C(=O)Nc1ccc2c(c1)CCc1ncccc1C2=O)C(F)(F)F (centres unmarked) [Compound 59, 8-(3,3,3-Trifluoro-2-hydroxy-2-methylpropanoylamino)-10,11-dihydro-5H-benzo[4,5]cyclohepta[1,2-b]pyridin-5-one]	5	> 10	
CC(O)(C(=O)Nc1ccc2c(=O)c3occc3ccc2c1)C(F)(F)F (centres unmarked) [Compound 68, 7-(3,3,3-Trifluoro-2-hydroxy-2-methylpropanoylamino)-10H-benzo[5,6]cyclohepta[1,2-b]furan-10-one]	3.5	> 10	
